Assay results published in patent publication US9205064B2, “Methods for the diagnosis of oncological disorders using epimetabolic shifters, multidimensional intracellular molecules, or environmental influencers” (Berg LLC, priority 2009, dated 2015).

Assays:
MCF-7 = assay: Nexin assay for apoptosis (Annexin-V-PE/7-AAD, flow cytometry); format: cell-based; settings: 50 μM and 100 μM Q10, 24 hours
Excerpt: (§1) The 7AAD dye will enter into cells with permeabilized cell membranes; primarily those cells that are in late apoptosis. Annexin-V-PE is a dye that binds to Phosphotidyl serine, which is exposed on the outer surface of the plasma membrane in early apoptotic cells. The Nexin reagent thus can be used to differentiate between different populations of apoptotic cells in a flow cytometer.

PC-3 = assay: as above; format: cell-based; settings: 50 μM and 100 μM Q10, 24 hours; less than PaCa2
Excerpt: as §1

SK-MEL28 = assay: as above; format: cell-based; settings: 50 μM and 100 μM Q10, 24 hours
Excerpt: as §1

SKBr3 = assay: as above; format: cell-based, human; settings: 50 μM or 100 μM Q10, 24 hours
Excerpt: as §1

SCC cells [1] = assay: 2-D gel electrophoresis proteomic analysis with mass spectrometry identification; format: cell-based; settings: 100 μM Q10, 24 hr
Excerpt: The gels were run in duplicate.

SCC cells [2] = assay: Real-time PCR Apoptosis Array; format: cell-based
Method: The control cells were untreated cells.
RNA was quantified by measuring Optical Density at 260 nm.
The genes in the Apoptosis array that appear to be regulated in SCC cells are described in Table 7. […] By 24 hours, the regulation is decreased.

HASMC cells = assay: SeaHorse XF analyzer OCR and ECAR; format: cell-based, human; settings: hyperglycemic, hypoxic conditions
Excerpt: (§2) Environmental influencers (e.g., MIMs or Epi-shifters) may also be identified by changes in cellular energetics. One example of the measurement of cellular energetics are the real-time measures of the consumption of molecular oxygen and/or the change in pH of the media of a cell culture. For example, the ability of a potential epi-shifter to modulate the metabolic state of a cell may be analyzed using, for example, the XF24 Analyzer (Seahorse, Inc.). This technology allows for real time detection of oxygen and pH changes in a monolayer of cells in order to evaluate the bioenergetics of a cell microenvironment. The XF24 Analyzer measures and compares the rates of oxygen consumption (OCR), which is a measure of aerobic metabolism, and extracellular acidification (ECAR), which is a measure of glycolysis, both key indicators of cellular energetics.
(§3) (SeaHorse Biosciences Inc, North Billerica, Mass.).
In this experiment, the OCR and extracellular acidification rate (ECAR) in normal cells lines were obtained in the presence and absence of CoQ10 to determine baseline values. It was observed that in its native nutrient environment, the basal OCR rates in normal cells lines are different, and are usually a function of the physiological roles of the cells in the body. […]
In Table 54 the measured baseline ECAR values (mpH/min) in HASMC were higher compared to that of HDFa. […]

[3] = test system: MCF-7 breast cancer cells; assay: SeaHorse XF analyzer OCR and ECAR; format: cell-based; settings: absence and presence of stressors
Excerpt: as §2, §3
In contrast, cancer cells (e.g., MCF-7, PaCa-2) are inherently primed to culture at higher levels of glucose compared to normal cells due to their glycolytic phenotype for maintenance in culture.

[4] = rats, oral; cited from earlier work

## COC1=C(OC)C(=O)C(C/C=C(\C)CC/C=C(\C)CC/C=C(\C)CC/C=C(\C)CC/C=C(\C)CC/C=C(\C)CC/C=C(\C)CC/C=C(\C)CC/C=C(\C)CCC=C(C)C)=C(C)C1=O [Q10, Coenzyme Q10]
MCF-7
  apoptotic population: increase only in early apoptotic population
PC-3
  early and late apoptotic population: increase
SK-MEL28
  apoptotic population: increase only in early apoptotic population
SKBr3
  early and late apoptosis: did not show any significant increases
SCC cells [1]
  HSP 70, spot 116: Response (further): decrease at 24 hr
  NM23 protein (NME1), spot 54: Response: decrease at 24 hr
SCC cells [2]; 100 μM Q10, 6 hours
  AKT1 mRNA Regulation: Down regulated at 6 hours and then
  BCL2L1 mRNA Regulation: Down regulated at 6 hours and then
  BIRC3 mRNA Regulation: Down regulated at 6 hours.
  CARD6 mRNA Regulation: Down regulated at 6 hours.
  CD27 mRNA Regulation: Down regulated at 6 hours.
  CD40 mRNA Regulation: Down regulated at 6 hours.
  CD70 mRNA Regulation: Down regulated at 6 hours.
  TNFRSF9 mRNA Regulation: Down regulated at 6 hours.
  TNFRSF21 mRNA Regulation: Down regulated at 6 hours.
  TNFRSF25 mRNA Regulation: Down regulated at 6 hours and then
  TP73 mRNA Regulation: Down regulated at 6 hours and then
SCC cells [2]; 100 μM Q10, 24 hours
  AKT1 mRNA Regulation: up regulated at 24 hours.
  BAG4 mRNA Regulation: Up regulated at 24 hours.
  BAX mRNA Regulation: Up regulated at 24 hours.
  BCL2L1 mRNA Regulation: up regulated at 24 hours.
  BCL2 mRNA Regulation: Up regulated at 24 hours.
  BNIP3 mRNA Regulation: Down regulated at 24 hours.
  CASP6 mRNA Regulation: Up regulated at 24 hours.
  CASP7 mRNA Regulation: Up regulated at 24 hours.
  FADD mRNA Regulation: Up regulated at 24 hours.
  GADD45A mRNA Regulation: Up regulated at 24 hours.
  HRK mRNA Regulation: Up regulated at 24 hours.
  TNFRSF25 mRNA Regulation: up regulated at 24 hours.
  TNFSF10 mRNA Regulation: Up regulated at 24 hours.
  TP53 mRNA Regulation: Up regulated at 24 hours.
  TP73 mRNA Regulation: up regulated at 24 hours.
  TRAF2 mRNA Regulation: Up regulated at 24 hours.
HASMC cells
  ECAR rates: downward trend
[3]
  OCR values: consistent reduction
[4]
  fraction of orally-administered CoQ10 absorbed: 2-3%
